Data taken from PubChem BioAssay (NCI).
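In this assay, cells in 96-well plates receive the compound at five concentrations for 48 hours. Endpoints are linearly interpolated between the surrounding concentrations. Abbreviation: GI50, concentration required for 50% inhibition of growth. Definition used: TGI = concentration required for complete inhibition of growth.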

Columns and labels:
Assay in all cases: NCI tumour cell line growth inhibition, 48 h
HOP-92 NSCLC = tested on: HOP-92 NSCLC
RPMI-8226 leukemia = tested on: RPMI-8226 leukemia
CAKI-1 renal = tested on: CAKI-1 renal
SF-539 CNS = tested on: SF-539 CNS
MDA-MB-435 = tested on: MDA-MB-435
SK-OV-3 ovarian = tested on: SK-OV-3 ovarian
HCT-15 colon = tested on: HCT-15 colon
SF-295 CNS = tested on: SF-295 CNS
T-47D breast = tested on: T-47D breast
OVCAR-5 ovarian = tested on: OVCAR-5 ovarian
OVCAR-3 ovarian = tested on: OVCAR-3 ovarian
HCC-2998 colon = tested on: HCC-2998 colon
786-0 renal = tested on: 786-0 renal
SNB-19 CNS = tested on: SNB-19 CNS
BT-549 breast = tested on: BT-549 breast
U251 CNS = tested on: U251 CNS
NCI-H23 lung = tested on: NCI-H23 lung
HS 578T breast = tested on: HS 578T breast
HT29 colon = tested on: HT29 colon
IGROV1 ovarian = tested on: IGROV1 ovarian
MALME-3M melanoma = tested on: MALME-3M melanoma
NCI-H522 lung = tested on: NCI-H522 lung
OVCAR-4 ovarian = tested on: OVCAR-4 ovarian
SK-MEL-2 melanoma = tested on: SK-MEL-2 melanoma
MCF7 breast = tested on: MCF7 breast
DU-145 prostate = tested on: DU-145 prostate
A549 NSCLC = tested on: A549 NSCLC
M14 melanoma = tested on: M14 melanoma
SR leukemia = tested on: SR leukemia
NCI/ADR-RES ovarian = tested on: NCI/ADR-RES ovarian
TK-10 renal = tested on: TK-10 renal
LOX IMVI melanoma = tested on: LOX IMVI melanoma
K-562 leukemia = tested on: K-562 leukemia
SK-MEL-5 melanoma = tested on: SK-MEL-5 melanoma
SNB-75 CNS = tested on: SNB-75 CNS
RXF 393 renal = tested on: RXF 393 renal
UO-31 renal = tested on: UO-31 renal
COLO 205 colon = tested on: COLO 205 colon
SN12C renal = tested on: SN12C renal
UACC-257 melanoma = tested on: UACC-257 melanoma
ACHN renal = tested on: ACHN renal
MDA-MB-231 breast = tested on: MDA-MB-231 breast
SK-MEL-28 melanoma = tested on: SK-MEL-28 melanoma
KM12 colon = tested on: KM12 colon
HOP-62 NSCLC = tested on: HOP-62 NSCLC
CCRF-CEM leukemia = tested on: CCRF-CEM leukemia
PC-3 prostate = tested on: PC-3 prostate
NCI-H226 lung = tested on: NCI-H226 lung
UACC-62 melanoma = tested on: UACC-62 melanoma
NCI-H460 lung = tested on: NCI-H460 lung
SF-268 CNS = tested on: SF-268 CNS
EKVX NSCLC = tested on: EKVX NSCLC
MOLT-4 leukemia = tested on: MOLT-4 leukemia
SW-620 colon = tested on: SW-620 colon
OVCAR-8 ovarian = tested on: OVCAR-8 ovarian
HL-60(TB) leukemia = tested on: HL-60(TB) leukemia

O=c1[nH]c2c3ccncc3cc(-c3cccc(Cl)c3)c2c2cnccc12
GI50 (HOP-92 NSCLC): 69.5 µM | TGI (HOP-92 NSCLC): > 100 µM | GI50 (RPMI-8226 leukemia): > 100 µM | TGI (RPMI-8226 leukemia): > 100 µM | GI50 (CAKI-1 renal): > 100 µM | TGI (CAKI-1 renal): > 100 µM | GI50 (SF-539 CNS): 19.6 µM | TGI (SF-539 CNS): > 100 µM | GI50 (MDA-MB-435): > 100 µM | TGI (MDA-MB-435): > 100 µM | GI50 (SK-OV-3 ovarian): 24.7 µM | TGI (SK-OV-3 ovarian): > 100 µM | GI50 (HCT-15 colon): > 100 µM | TGI (HCT-15 colon): > 100 µM | GI50 (SF-295 CNS): 34 µM | TGI (SF-295 CNS): > 100 µM | GI50 (T-47D breast): > 100 µM | TGI (T-47D breast): > 100 µM | GI50 (OVCAR-5 ovarian): > 100 µM | TGI (OVCAR-5 ovarian): > 100 µM | GI50 (OVCAR-3 ovarian): 3.7 µM | TGI (OVCAR-3 ovarian): > 100 µM | GI50 (HCC-2998 colon): > 100 µM | TGI (HCC-2998 colon): > 100 µM | GI50 (786-0 renal): 18.8 µM | TGI (786-0 renal): 79.5 µM | GI50 (SNB-19 CNS): 25.6 µM | TGI (SNB-19 CNS): > 100 µM | GI50 (BT-549 breast): 7.94 µM | TGI (BT-549 breast): > 100 µM | GI50 (U251 CNS): 4.52 µM | TGI (U251 CNS): > 100 µM | GI50 (NCI-H23 lung): 12.9 µM | TGI (NCI-H23 lung): > 100 µM | GI50 (HS 578T breast): 28.8 µM | TGI (HS 578T breast): > 100 µM | GI50 (HT29 colon): > 100 µM | TGI (HT29 colon): > 100 µM | GI50 (IGROV1 ovarian): 72.2 µM | TGI (IGROV1 ovarian): > 100 µM | GI50 (MALME-3M melanoma): > 100 µM | TGI (MALME-3M melanoma): > 100 µM | GI50 (NCI-H522 lung): 30.4 µM | TGI (NCI-H522 lung): > 100 µM | GI50 (OVCAR-4 ovarian): > 100 µM | TGI (OVCAR-4 ovarian): > 100 µM | GI50 (SK-MEL-2 melanoma): 47.9 µM | TGI (SK-MEL-2 melanoma): > 100 µM | GI50 (MCF7 breast): > 100 µM | TGI (MCF7 breast): > 100 µM | GI50 (DU-145 prostate): > 100 µM | TGI (DU-145 prostate): > 100 µM | GI50 (A549 NSCLC): > 100 µM | TGI (A549 NSCLC): > 100 µM | GI50 (M14 melanoma): > 100 µM | TGI (M14 melanoma): > 100 µM | GI50 (SR leukemia): 0.442 µM | TGI (SR leukemia): > 100 µM | GI50 (NCI/ADR-RES ovarian): 39.9 µM | TGI (NCI/ADR-RES ovarian): > 100 µM | GI50 (TK-10 renal): 40.2 µM | TGI (TK-10 renal): > 100 µM | GI50 (LOX IMVI melanoma): 2.04 µM | TGI (LOX IMVI melanoma): > 100 µM | GI50 (K-562 leukemia): > 100 µM | TGI (K-562 leukemia): > 100 µM | GI50 (SK-MEL-5 melanoma): > 100 µM | TGI (SK-MEL-5 melanoma): > 100 µM | GI50 (SNB-75 CNS): 17.7 µM | TGI (SNB-75 CNS): 89.7 µM | GI50 (RXF 393 renal): 0.737 µM | TGI (RXF 393 renal): 52.3 µM | GI50 (UO-31 renal): > 100 µM | TGI (UO-31 renal): > 100 µM | GI50 (COLO 205 colon): > 100 µM | TGI (COLO 205 colon): > 100 µM | GI50 (SN12C renal): 84.2 µM | TGI (SN12C renal): > 100 µM | GI50 (UACC-257 melanoma): > 100 µM | TGI (UACC-257 melanoma): > 100 µM | GI50 (ACHN renal): 1.91 µM | TGI (ACHN renal): > 100 µM | GI50 (MDA-MB-231 breast): 4.71 µM | TGI (MDA-MB-231 breast): > 100 µM | GI50 (SK-MEL-28 melanoma): > 100 µM | TGI (SK-MEL-28 melanoma): > 100 µM | GI50 (KM12 colon): > 100 µM | TGI (KM12 colon): > 100 µM | GI50 (HOP-62 NSCLC): 27.9 µM | TGI (HOP-62 NSCLC): 91.5 µM | GI50 (CCRF-CEM leukemia): > 100 µM | TGI (CCRF-CEM leukemia): > 100 µM | GI50 (PC-3 prostate): > 100 µM | TGI (PC-3 prostate): > 100 µM | GI50 (NCI-H226 lung): 73.8 µM | TGI (NCI-H226 lung): > 100 µM | GI50 (UACC-62 melanoma): 44.3 µM | TGI (UACC-62 melanoma): > 100 µM | GI50 (NCI-H460 lung): > 100 µM | TGI (NCI-H460 lung): > 100 µM | GI50 (SF-268 CNS): 20.8 µM | TGI (SF-268 CNS): > 100 µM | GI50 (EKVX NSCLC): > 100 µM | TGI (EKVX NSCLC): > 100 µM | GI50 (MOLT-4 leukemia): > 100 µM | TGI (MOLT-4 leukemia): > 100 µM | GI50 (SW-620 colon): > 100 µM | TGI (SW-620 colon): > 100 µM | GI50 (OVCAR-8 ovarian): 11.7 µM | TGI (OVCAR-8 ovarian): > 100 µM | GI50 (HL-60(TB) leukemia): > 100 µM | TGI (HL-60(TB) leukemia): > 100 µM
